Five molecules from ChEMBL document CHEMBL1926603 (Bioorg Med Chem Lett, 2011) can be followed below.

pIC50: −log10 of the molar value. Some results are limits rather than exact numbers.

Test [1] can be described thus: cells. The conditions noted are these: Mus musculus, Melan-a, 96 h.
Description: Depigmentation activity in mouse Melan-a cells assessed as inhibition of melanin formation after 4 days
For test [2], the system named is Radical scavenging activity.
Description: Antioxidant activity assessed as DPPH radical scavenging activity after 30 mins
Test [3] in a line: cells. Particulars: Mus musculus, Melan-a.
Description: Cytotoxicity against mouse Melan-a cells by modified crystal voilet assay
The next test deals with T1, Tyrosinase (Agaricus bisporus, UniProt O42713).
T1 sequence (O42713 whole entry): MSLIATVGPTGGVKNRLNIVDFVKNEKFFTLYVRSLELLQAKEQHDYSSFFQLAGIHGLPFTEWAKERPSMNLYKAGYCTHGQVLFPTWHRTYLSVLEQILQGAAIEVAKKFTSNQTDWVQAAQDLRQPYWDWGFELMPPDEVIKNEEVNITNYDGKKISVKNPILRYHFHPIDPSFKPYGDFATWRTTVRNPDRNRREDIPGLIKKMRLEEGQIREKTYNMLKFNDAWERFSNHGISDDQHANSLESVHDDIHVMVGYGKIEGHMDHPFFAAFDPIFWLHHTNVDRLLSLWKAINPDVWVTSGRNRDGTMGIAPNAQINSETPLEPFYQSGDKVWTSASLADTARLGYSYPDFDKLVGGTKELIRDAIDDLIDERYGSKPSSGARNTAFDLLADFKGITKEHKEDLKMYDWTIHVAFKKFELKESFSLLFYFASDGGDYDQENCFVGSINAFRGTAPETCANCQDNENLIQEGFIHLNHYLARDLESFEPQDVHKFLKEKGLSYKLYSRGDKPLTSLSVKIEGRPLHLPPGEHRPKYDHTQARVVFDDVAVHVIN
Briefly: Inhibition of mushroom tyrosinase activity using L-tyrosin as substrate after 20 mins.

A short description of test [4]: Ratio of kojic acid IC50 to compound IC50 for depigmentation activity in mouse Melan-a cells assessed as inhibition of melanin formation after 4 days. The class given is functional.

With `O=C(OCc1cc(=O)c(O)co1)c1ccc2cc(O)ccc2c1`, the pIC50 in “cells [1]” was under 3.70; in test [2] it was under 3.70; in “cells [3]”, under 3.70; against Tyrosinase, 5.02.

With `O=C(OCc1cc(=O)c(O)co1)c1ccc(O)cc1`, the pIC50 in “cells [1]” is under 3.70; in test [2], under 3.70; in “cells [3]”, under 3.70; against Tyrosinase, 5.26.

With `COc1coc(COC(=O)C2(C)CCc3c(C)c(O)c(C)c(C)c3O2)cc1=O` (stereo unspecified), the pIC50 in “cells [1]” is under 3.70; in test [2] it was 4.70; in “cells [3]”, under 3.70; against Tyrosinase, under 3.70.

On to `Cc1c(C)c2c(c(C)c1O)CCC(C)(C(=O)OCc1cc(=O)c(O)co1)O2` (racemic), for which the pIC50 in “cells [1]” was 4.75; in test [2], 4.94; in the test “cells [3]” it was 4.25; against Tyrosinase it was 5.27. In addition, in test [4], the “Ratio IC50” value was determined as 90.

In the case of `Cc1c(C)c2c(c(C)c1O)CCC(C)(C(=O)O)O2` (stereo unspecified) [TROLOX], the pIC50 was under 3.52 in the test “cells [1]”, 5.00 in test [2], 3.52 in the test “cells [3]” and under 3.70 on Tyrosinase.

As usually defined, the pIC50 is the IC50 on a negative log10 scale, so that one unit is a factor of ten. Low values mean a large IC50, high ones a small IC50.
